Laboratory results reported in patent US20250186490A1, “METHOD OF CHEMICALLY TREATING OR CULTIVATING MACROPHAGES AND THEIR THERAPEUTIC APPLICATIONS IN FIBROTIC DISEASES” (MAPONOS THERAPEUTICS INC., priority 2022, published 2025).

Assays:
[1] = system: Bone Marrow-Derived Macrophages (BMDM); assay: MCP-1 ELISA on culture supernatant of MRCi-treated macrophages cultured under hypoxia; assay type: cell-based, mouse; conditions: then hypoxia, vs untreated
Description: (§1) In this example, macrophages were isolated and cultivated from the source of murine bone marrow. Eight-week-old male C57/BL6 mice (The Jackson Laboratory, ME, USA) were sacrificed by cervical dislocation. The tibia and femur were separated, and the bone marrow was flushed out using ice-cold PBS solution. Bone marrow cells were then resuspended into single-cell suspension and washed with ice-cold PBS. The cells were treated with Red Blood Cell Lysis Buffer (MilliporeSigma, MA, USA). After the treatment, the cell suspension was washed with ice-cold PBS then seeded with a culture medium.
(§2) The culture medium for the BMDM used in this example includes RPMI1640 (Thermo Fisher Scientific, MA, USA) containing 10% heat-inactivated Fetal Bovine Serum (Gemini Bio, CA, USA), supplied with 100 ng/ml of Recombinant Mouse M-CSF Protein (R&D Systems, MN, USA). Fresh medium was supplied on day three and day five post isolation. On day six of the culturing process, 1 μM of Rotenone (MilliporeSigma, MA, USA) in DMSO solution was added into the culturing medium and incubated for 2 hours with the cells. Then the culture was replaced with fresh medium and was placed into a hypoxia culture chamber with 1% oxygen supply and 5% carbon dioxide at 37° C. On day seven, the cells were ready for downstream treatments. In the untreated group, only vehicle (DMSO) was added as the control. In addition to Rotenone, the following mitochondrial respiratory chain inhibitors (MRCi) were also tested following the same culturing process: Deguclin (10 μM), Piericidin A (0.1 μM), and Capsaicin (5 μM).
To evaluate the enhanced anti-fibrosis ability of the chemically-treated BMDM, ELISA assays were applied using commercially purchased testing kits. In this example, a Mouse MCP-1 ELISA Kit and a Mouse IP-10 ELISA Kit (CXCL10) (both from Abcam plc, Cambridge, UK) were used. Tests using both kits were performed according to the instructions provided by Abcam. […]

[2] = system: Bone Marrow-Derived Macrophages (BMDM); assay: CXCL10 (IP-10) ELISA on culture supernatant of MRCi-treated macrophages cultured under hypoxia; assay type: cell-based, mouse; conditions: then hypoxia (1% oxygen), vs untreated
Description: as §1
as §2, with “In addition to Rotenone, the following mitochondrial respiratory chain inhibitors (MRCi) were also tested following the same culturing process: Deguclin (10 μM), Piericidin A (0.1 μM), and Capsaicin (5 μM).” left out

How did the MCP-1 level ([1]; BMDM treated with 0.1 μM Piericidin A) turn out when `C/C=C(\C)[C@H](O)[C@H](C)/C=C(C)/C=C/C/C(C)=C/Cc1nc(OC)c(OC)c(O)c1C` [Piericidin A] was run?
Its MCP-1 level is “reduce the MCP-1 level”.

With `COc1cc(CNC(=O)CCCC/C=C/C(C)C)ccc1O` [capsaicin, Capsaicin] as the molecule, how does the MCP-1 level ([1]; BMDM treated with 5 μM capsaicin) read?
Its MCP-1 level is “reduce the MCP-1 level”.

`COc1cc2c(cc1OC)[C@@H]1C(=O)c3ccc4c(c3O[C@@H]1CO2)C=CC(C)(C)O4` [deguelin, Deguelin] was tested. Which “CXCL 10 level” value ([2]; BMDM treated with 10 μM deguelin for 2 hours) did it give?
Its value is “increased CXCL 10 level”.

For `C=C(C)[C@H]1Cc2c(ccc3c2O[C@@H]2COc4cc(OC)c(OC)cc4[C@@H]2C3=O)O1` [rotenone, Rotenone], which “CXCL 10 level” value ([2]; BMDM treated with 1 μM rotenone for 2 hours) is on record?
Its value is “increased CXCL 10 level”.

And the MCP-1 level ([1]; BMDM treated with 1 μM rotenone)?
Its MCP-1 level is “reduce the MCP-1 level”.
